Source: publication PMC10530836, “Synthesis, Molecular Docking, and Biological Evaluation of Novel Anthranilic Acid Hybrid and Its Diamides as Antispasmodics” (International Journal of Molecular Sciences, 2023)
Where two headings read alike, the source gives them in different places.

How the values were obtained:
[1] = test system: Aspergillus flavus; experiment: Antimicrobial activity, agar well diffusion; format: cell-based; conditions: Dose 0.6 mg/disk, dwell = 6 mm
Text: (§1) Twenty tested microorganisms including six Gram-positive bacteria (Bacillus subtilis ATCC 6633, Bacillus amyloliquefaciens 4BCL-YT, Staphylococcus aureus ATCC 25923, Listeria monocytogenes NBIMCC 8632, Enterococcus faecalis ATCC 19433), six Gram-negative bacteria (Salmonella enteritidis ATCC 13076, Klebsiella sp.—clinical isolate, Escherichia coli ATCC 25922, Proteus vulgaris ATCC 6380, Pseudomonas aeruginosa ATCC 9027), two yeasts (Candida albicans NBIMCC 74, Saccharomyces cerevisiae ATCC 9763), and six fungi (Aspergillus niger ATCC 1015, Aspergillus flavus, Penicillium sp., Rhizopus sp., Mucor sp.—plant isolates, Fusarium moniliforme ATCC 38932) from the collection of the Department of Microbiology at the University of Food Technologies—Plovdiv, Bulgaria, were selected for the antimicrobial activity test. The antimicrobial activity of the samples was determined by the agar well diffusion method. The tested bacteria B. subtilis and B. amyloliquefaciens were cultured on LBG agar at 30 °C. The test bacteria S. aureus, L. monocytogenes, E. faecalis, S. enteritidis, Klebsiella sp., E. coli, P. vulgaris, and P. aeruginosa were cultured on LBG agar at 37 °C for 24 h. The yeast C. albicans was cultured on MEA at 37 °C, while S. cerevisiae was cultured on MEA at 30 °C for 24 h. The fungi A. niger, A. flavus, Penicillium sp., Rhizopus sp., Mucor sp., and F. moniliforme were grown on MEA at 30 °C for 7 days or until sporulation. The inocula of the tested bacteria/yeasts was prepared by homogenization of a small amount of biomass in 5 mL of sterile 0.5% NaCl. The inocula of tested fungi were prepared by the addition of 5 mL of sterile 0.5% NaCl into the tubes. After stirring by vortex V-1 plus (Biosan), they were filtered and replaced in other tubes before use. The number of viable cells and fungal spores was determined using a bacterial counting chamber Thoma (Poly-Optik, GmbH, Bad Blankenburg, Germany). Their final concentrations were adjusted to 10^8 cfu/mL for bacterial/yeast cells and 10^5 cfu/mL for fungal spores and then inoculated in preliminarily melted and tempered at 45–48 °C LBG/MEA agar media. Next, the inoculated media were transferred in a quantity of 18 mL in sterile Petri plates (d = 90 mm) (Gosselin™, Hazebrouck, France) and allowed to harden. Then, six wells (d = 6 mm) per plate were cut, and triplicates of 60 μL of each extract were pipetted into the agar wells. The Petri plates were incubated in identical conditions. The antimicrobial activity was determined by measuring the diameter of the inhibition zones around the wells on the 24th and 48th h of incubation. Tested microorganisms with inhibition zones of 18 mm or more were considered sensitive; moderately sensitive were those in which the zones were from 12 to 18 mm; resistant were those in which the inhibition zones were up to 12 mm or completely missing.

[2] = test system: Salmonella enteritidis ATCC 13076; experiment: Antimicrobial activity, agar well diffusion; format: cell-based; conditions: Dose 0.6 mg/disk, dwell = 6 mm
Text: as §1

[3] = test system: Micrococcus luteus 2YC-YT; experiment: Antimicrobial activity, agar well diffusion; format: cell-based; conditions: Dose 0.6 mg/disk, dwell = 6 mm
Text: as §1

[4] = test system: Pseudomonas aeruginosa ATCC 9027; experiment: Antimicrobial activity, agar well diffusion; format: cell-based; conditions: Dose 0.6 mg/disk, dwell = 6 mm
Text: as §1

[5] = test system: Listeria monocytogenes NBIMCC 8632; experiment: Antimicrobial activity, agar well diffusion; format: cell-based; conditions: Dose 0.6 mg/disk, dwell = 6 mm
Text: as §1

[6] = test system: Proteus vulgaris ATCC 6380; experiment: Antimicrobial activity, agar well diffusion; format: cell-based; conditions: Dose 0.6 mg/disk, dwell = 6 mm
Text: as §1

[7] = test system: Salmonella typhimurium NBIMCC 1672; experiment: Antimicrobial activity, agar well diffusion; format: cell-based; conditions: Dose 0.6 mg/disk, dwell = 6 mm
Text: as §1

[8] = test system: Rhizopus sp.; experiment: Antimicrobial activity, agar well diffusion; format: cell-based; conditions: Dose 0.6 mg/disk, dwell = 6 mm
Text: as §1

[9] = test system: Bacillus subtilis ATCC 6633; experiment: Antimicrobial activity, agar well diffusion; format: cell-based; conditions: Dose 0.6 mg/disk, dwell = 6 mm
Text: as §1

[10] = test system: Penicillium chrysogenum; experiment: Antimicrobial activity, agar well diffusion; format: cell-based; conditions: Dose 0.6 mg/disk, dwell = 6 mm
Text: as §1

[11] = test system: Aspergillus niger ATCC 1015; experiment: Antimicrobial activity, agar well diffusion; format: cell-based; conditions: Dose 0.6 mg/disk, dwell = 6 mm
Text: as §1

[12] = test system: Escherichia coli ATCC 25922; experiment: Antimicrobial activity, agar well diffusion; format: cell-based; conditions: Dose 0.6 mg/disk, dwell = 6 mm
Text: as §1

[13] = test system: Klebsiella pneumoniae ATCC 13883; experiment: Antimicrobial activity, agar well diffusion; format: cell-based; conditions: Dose 0.6 mg/disk, dwell = 6 mm
[14] = MTT cell viability assay; format: cell-based, murine; conditions: mouse, CCL-1 normal fibroblast cells (adherent); CCL-1, MTT, 72 h exposure, ± SD; read-out: In vitro cytotoxicity IC50
Procedure: (§2) To evaluate the biocompatibility of the hybrid compounds, their in vitro antiproliferative activity was assessed in a panel of human malignant cell lines of different origin (K-562 and LAMA-84 suspension-growing myeloid leukemia cells, positive for the Philadelphia chromosome, and the urothelial bladder carcinoma cell line T-24 of adherent type). Non-malignant murine fibroblast cells (CCL-1) were also used as a screening platform. All cell lines were purchased from the German Collection of Microorganisms and Cell Cultures (DSMZ GmbH, Braunschweig, Germany). Cell cultures were cultivated in a growth medium RPMI 1640 supplemented with 10% fetal bovine serum (FBS), and 5% L-glutamine and were incubated under standard conditions of 37 °C and 5% humidified CO2 atmosphere. The effects of the newly synthesized anthranilic derivatives on cell viability were measured using a validated colorimetric assay for evaluating cell viability, known as the Mosmann MTT method. Exponential-phased cells were harvested and seeded (100 μL/well) in 96-well plates at the appropriate density (3 × 10^5 for the suspension cultures LAMA-84 and K-562 and 1.5 × 10^5 for the adherent T-24 and CCL-1 cells). Following a 24 h incubation, cells were treated with various concentrations of the experimental compounds in the concentration range of 200–12.5 μM. After an exposure time of 72 h, filter-sterilized MTT substrate solution (5 mg/mL in PBS) was added to each well of the culture plate. A further 2–4 h incubation allowed for the formation of purple insoluble formazan crystals. The latter was dissolved in isopropyl alcohol solution containing 5% formic acid prior to absorbance measurement at 550 nm. Collected absorbance values were blanked against MTT and isopropanol solution and normalized to the mean value of untreated control (100% cell viability).

[15] = MTT cell viability assay; format: cell-based; conditions: human, 72 h exposure, ± SD, read-out: In vitro cytotoxicity IC50
Procedure: as §2

[16] = test system: Enterococcus faecalis ATCC 29212; experiment: Antimicrobial activity, agar well diffusion; format: cell-based; conditions: Dose 0.6 mg/disk, dwell = 6 mm
[17] = K-562 myeloid leukemia cells (suspension), K-562, MTT
[18] = LAMA-84 myeloid leukemia cells (suspension), LAMA-84, MTT
[19] = T-24 urothelial bladder carcinoma cells (adherent), T-24, MTT

| SMILES | Inhibition Zones [1] [mm] | Inhibition Zones [2] [mm] | Inhibition Zones [3] [mm] | Inhibition Zones [4] [mm] | Inhibition Zones [5] [mm] | Inhibition Zones [6] [mm] | Inhibition Zones [7] [mm] | Inhibition Zones [8] [mm] | Inhibition Zones [9] [mm] | Inhibition Zones [10] [mm] | Inhibition Zones [11] [mm] | Inhibition Zones [12] [mm] | Inhibition Zones [13] [mm] | IC50 at 72 h [14] [µM] | IC50 at 72 h [15, 17] [µM] | IC50 at 72 h [15, 18] [µM] | IC50 at 72 h [15, 19] [µM] | Inhibition Zones [16] [mm] |
| --- | --- | --- | --- | --- | --- | --- | --- | --- | --- | --- | --- | --- | --- | --- | --- | --- | --- | --- |
| Nc1ccccc1C(=O)NCCc1cccc(Cl)c1 [Compound 3, 2-amino-N-(3-chlorophenethyl)benzamide] | 20 | 12 | 19 | 14 | 12 | 8 | 12 | 20 | 12 | 20 | 20 | 13 | 8 | > 200 | 154 ± 11.1 | 115 ± 10.5 | 137 ± 12.5 | 12 |
| O=C(Nc1ccccc1C(=O)NCCc1cccc(Cl)c1)c1ccccc1 [Compound 4b, 2-benzamido-N-(3-chlorophenethyl)benzamide] | 13 | 8 | 15 | 10 | 12 | 8 | 8 | 11 | 11 | 15 | 11 | 11 | – | > 200 | 55.2 ± 4.7 | 60.7 ± 5.3 | 94.9 ± 5 | 8 |
| CC(=O)Nc1ccccc1C(=O)NCCc1cccc(Cl)c1 [Compound 4a, 2-acetamido-N-(3-chlorophenethyl)benzamide] | 8 | 12 | 10 | 9 | 8 | 8 | 8 | 8 | 8 | 13 | 10 | 9 | 14 | > 200 | > 200 | 112 ± 9.4 | > 200 | 12 |
